From a compilation of properties of binary mixtures (doi:10.1007/s10953-005-5594-7)

Assay: xn = mol fraction of the nth substance listed
Conditions: 298.15 K, 101.3 kPa

O=C1CCCC1 + CCCC[n+]1ccn(C)c1.F[P-](F)(F)(F)(F)F
Conditions	viscosity [mPa·s]
x1 = 0.1883	114.8
x1 = 0.4475	33.04
x1 = 0.5025	24.71
x1 = 0.6034	14.52
x1 = 0.6502	11.01
x1 = 0.7011	7.89
x1 = 0.8041	4.19
x1 = 0.8982	2.274
x1 = 0.9518	1.566
x1 = 1	1.074

CCCC[n+]1ccn(C)c1.F[P-](F)(F)(F)(F)F + CCOC(C)=O
Conditions	viscosity [mPa·s]
x2 = 0	270
x2 = 0.0937	149
x2 = 0.1914	87.9
x2 = 0.2918	48.2
x2 = 0.3944	27.52
x2 = 0.4485	20.54
x2 = 0.4967	16.16
x2 = 0.5529	11.52
x2 = 0.6039	8.45
x2 = 0.7092	4.21
x2 = 0.8037	2.208
x2 = 0.898	1.083
x2 = 0.9504	0.699

CCC(=O)CC + CCCC[n+]1ccn(C)c1.F[P-](F)(F)(F)(F)F
Conditions	viscosity [mPa·s]
x1 = 0.1088	137
x1 = 0.3986	24.26
x1 = 0.4491	17.94
x1 = 0.5503	10.02
x1 = 0.601	7.37
x1 = 0.6983	4.03
x1 = 0.8007	2.022
x1 = 0.9019	0.972
x1 = 0.948	0.69
x1 = 1	0.458

CCOC(C)=O + CCCC[n+]1ccn(C)c1.F[P-](F)(F)(F)(F)F
Conditions	viscosity [mPa·s]
x1 = 1	0.439

CCC(C)=O + CCCC[n+]1ccn(C)c1.F[P-](F)(F)(F)(F)F
Conditions	viscosity [mPa·s]
x1 = 1	0.388

CCCC[n+]1ccn(C)c1.F[P-](F)(F)(F)(F)F + CCC(C)=O
Conditions	viscosity [mPa·s]
x2 = 0	270
x2 = 0.0995	145
x2 = 0.2007	81.6
x2 = 0.5002	13.55
x2 = 0.5506	9.82
x2 = 0.5988	7.27
x2 = 0.7023	3.701
x2 = 0.8004	1.861
x2 = 0.9027	0.861
x2 = 0.9487	0.606

CCCC[n+]1ccn(C)c1.F[P-](F)(F)(F)(F)F + CC(C)=O
Conditions	viscosity [mPa·s]
x2 = 0	270
x2 = 0.1147	137
x2 = 0.198	84.8
x2 = 0.2923	46.7
x2 = 0.4035	24
x2 = 0.4993	13.41
x2 = 0.5495	9.68
x2 = 0.6519	4.99
x2 = 0.6989	3.69
x2 = 0.8956	0.81
x2 = 0.9481	0.516

CC(C)=O + CCCC[n+]1ccn(C)c1.F[P-](F)(F)(F)(F)F
Conditions	viscosity [mPa·s]
x1 = 1	0.316

CCCC[n+]1ccn(C)c1.F[P-](F)(F)(F)(F)F + CCC(=O)CC
Conditions	viscosity [mPa·s]
x2 = 0	270
